Experiments:
[1] = tested on: re-entrant atrial flutter; assay: Y-atriotomy model for re-entrant atrial flutter, burst atrial pacing; assay type: in vivo, dog; conditions: dogs systemically administered a dose of ibutilide equivalent to that provided by the polymer
Q9E-hMiRP1 channels [2] = molecular target: T1, Q9E-hMiRP1 channels (Homo sapiens, UniProt Q12809+Q9Y6J6, Q9E); conditions: patch clamp studies, Abbott et al, 1999; cited from earlier work
T1 construct: expressed in transfected cells; host or cells: HEK293 stably expressing HERG, stably co-transfected with pIRES2-EGFP-Q9E-hMiRP1-FLAG
T1 sequence (Q12809 whole entry): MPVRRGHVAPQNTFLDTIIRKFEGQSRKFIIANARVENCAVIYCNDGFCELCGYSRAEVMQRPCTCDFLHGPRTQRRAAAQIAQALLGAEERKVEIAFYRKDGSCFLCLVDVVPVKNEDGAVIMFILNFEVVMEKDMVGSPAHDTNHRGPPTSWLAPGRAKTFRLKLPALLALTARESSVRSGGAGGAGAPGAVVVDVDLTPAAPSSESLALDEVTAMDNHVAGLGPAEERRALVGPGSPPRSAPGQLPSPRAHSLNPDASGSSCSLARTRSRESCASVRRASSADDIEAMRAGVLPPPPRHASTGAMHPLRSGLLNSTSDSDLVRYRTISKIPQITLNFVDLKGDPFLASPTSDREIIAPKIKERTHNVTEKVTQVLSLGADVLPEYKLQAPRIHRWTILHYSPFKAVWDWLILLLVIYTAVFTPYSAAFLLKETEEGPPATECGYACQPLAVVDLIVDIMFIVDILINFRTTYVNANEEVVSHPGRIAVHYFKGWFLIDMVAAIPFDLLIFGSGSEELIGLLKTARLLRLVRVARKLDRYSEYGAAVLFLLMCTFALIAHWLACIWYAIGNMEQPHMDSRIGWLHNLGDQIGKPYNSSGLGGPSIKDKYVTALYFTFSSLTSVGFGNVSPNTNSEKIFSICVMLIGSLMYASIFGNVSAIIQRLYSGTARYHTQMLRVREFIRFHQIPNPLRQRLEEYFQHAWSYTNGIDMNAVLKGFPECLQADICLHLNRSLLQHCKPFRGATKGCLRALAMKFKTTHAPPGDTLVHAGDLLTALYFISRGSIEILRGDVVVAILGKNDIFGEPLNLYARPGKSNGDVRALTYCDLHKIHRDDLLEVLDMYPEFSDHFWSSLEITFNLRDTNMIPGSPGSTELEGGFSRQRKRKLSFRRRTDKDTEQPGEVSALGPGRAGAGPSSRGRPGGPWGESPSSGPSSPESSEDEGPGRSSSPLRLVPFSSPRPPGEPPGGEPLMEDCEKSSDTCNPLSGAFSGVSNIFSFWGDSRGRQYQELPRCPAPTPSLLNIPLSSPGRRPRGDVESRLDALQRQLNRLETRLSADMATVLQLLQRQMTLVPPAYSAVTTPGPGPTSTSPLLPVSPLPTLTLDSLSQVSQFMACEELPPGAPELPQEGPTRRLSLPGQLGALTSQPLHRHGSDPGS
T1 sequence (Q9Y6J6 whole entry Q9E): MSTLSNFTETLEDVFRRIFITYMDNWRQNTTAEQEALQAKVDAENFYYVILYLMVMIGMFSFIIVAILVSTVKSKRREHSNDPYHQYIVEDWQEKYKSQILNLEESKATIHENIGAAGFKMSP

[3] = molecular target: T2, channels formed with wild-type hMiRP1 (Homo sapiens, UniProt Q12809); assay: Whole cell voltage clamp, HEK293 cells stably expressing HERG and wild type hMiRP1; assay type: cell-based; conditions: wild-type hMiRP1, activation at +20 mV, read-out: Dose causing half block of the peak outward currents
T2 construct: expressed in transfected cells; host or cells: HEK293 stably expressing HERG, stably co-transfected with pIRES2-EGFP-hMiRP1-FLAG
T2 sequence (Q12809 whole entry): as the sequence (Q12809 whole entry) above
T2 sequence (Q9Y6J6 whole entry, further chain): as the sequence (Q9Y6J6 whole entry Q9E) above, with E9Q counted along it
Description: (§1) Electrophysiology Methods: HEK293 cells that stably express HERG, but not hMiRP1 (Zhou, et al., 1999) were also stably co-transfected with either hMiRP1 or Q9E-hMiRP1 and subsequently were analyzed for channel function by single cell patch clamping using voltage clamp conditions. The data were analyzed at a sampling rate of 4 kHz and filtered at 1 kHz using Pclamp software version 6.0 (Axon Instruments, Foster City, Calif.). Leak correction was not performed, and therefore unaltered data are shown. All experiments were performed at 25° C. Protocols for steady-state activation and isochronal peak currents, and clarithromycin incubations were performed as described by Abbott et al., 1999. Initial studies were performed in buffer containing 95 mM KCl, 5 mM NaCl, 1 mM MgCl2, 0.3 mM CaCl2, and 10 mM HEPES (pH 7.6). For whole cell recordings, pipettes contained 100 mM KCl, 1 mM MgCl2, 10 mM HEPES, and 2 mM EGTA (pH 7.5). A 50 mM Clarithromycin (American Bioanalytical, Natick, Mass.) stock in DMSO was diluted in bath solution.

Q9E-hMiRP1 channels [4] = molecular target: T3, Q9E-hMiRP1 channels (Homo sapiens, UniProt Q12809); assay: Whole cell voltage clamp, HEK293 cells stably expressing HERG and Q9E-hMiRP1; assay type: cell-based; conditions: HEK293 cells overexpressing Q9E-hMiRP1, activation at +20 mV; read-out: Dose leading to half blockade of peak outward currents
T3 construct: expressed in transfected cells; host or cells: HEK293 stably expressing HERG, stably co-transfected with pIRES2-EGFP-Q9E-hMiRP1-FLAG
T3 sequence (Q12809 whole entry): as the sequence (Q12809 whole entry) above
T3 sequence (Q9Y6J6 whole entry Q9E, further chain): as the sequence (Q9Y6J6 whole entry Q9E) above
Description: as §1

Q9E-hMiRP1 channels [5] = molecular target: T1, Q9E-hMiRP1 channels; assay: as above; assay type: cell-based
Description: as §1

| SMILES | Inhibition of inducibility of atrial flutter [1] | Sensitivity of Q9E-hMiRP1 channels to clarithromycin induced diminution of potassium currents relative to wild type (Q9E-hMiRP1 channels [2]) [fold] | IC50 [3] [mM] | IC50 (Q9E-hMiRP1 channels [4]) [mM] | Effect on I/I max with increased voltages (Q9E-hMiRP1 channels [5]; 1.0 mM clarithromycin, Q9E-hMiRP1 stable cells, groups of 4 cells) | Clarithromycin effect in Q9E-hMiRP1 cells relative to wild type hMiRP1 cells (Q9E-hMiRP1 channels [5]; HEK293 cells) | Effect on peak outward currents (Q9E-hMiRP1 channels [5]; HEK293 cells over-expressing Q9E-hMiRP1, whole cell voltage clamp) |
| --- | --- | --- | --- | --- | --- | --- | --- |
| CCCCCCCN(CC)CCCC(O)c1ccc(NS(C)(=O)=O)cc1 (stereo not shown) [ibutilide, Ibutilide] | No significant inhibition | – | – | – | – | – | – |
| CC[C@H]1OC(=O)[C@H](C)[C@@H](O[C@H]2C[C@@](C)(OC)[C@@H](O)[C@H](C)O2)[C@H](C)[C@@H](O[C@@H]2O[C@H](C)C[C@H](N(C)C)[C@H]2O)[C@](C)(OC)C[C@@H](C)C(=O)[C@H](C)[C@@H](O)[C@]1(C)O [clarithromycin, Clarithromycin] | – | 3 | ~2 | < 1 | blocked increases in I/I max with increased voltages | many-fold greater | reduced peak outward currents |
